Each compound was assayed on HCV replicon (Replicon 1a) (assay: anti-HCV activity in Huh-7 cell line harboring a HCV replicon (Replicon 1a)). Settings: 1 μM; human hepatoma Huh-7 HCV replicon cells, 3 days, luciferase readout.
Assay type: cell-based

Structure (SMILES) | Replicon 1a % inhibition at 1 μM [%]
COC1CCC=Cc2cccc(c2)C2CCCCN2C(=O)C2CCCN(N2)C(=O)C(C)NC(=O)C(C(C)C)NC(=O)C1C (single isomer, unassigned) [Compound 30] | 73

Same assay, conditions: Hepatitis C virus, Huh-7, 72 h, read-out: Replicon 1a % inhibition at 1 μM

Structure (SMILES) | inhibition at 1 µM [%]
CC(C)[C@@H]1NC(=O)[C@](C)(CO)/C=C/c2ccc3ccc(nc3c2)[C@@H](C)OC(=O)[C@@H]2CCCN(N2)C(=O)[C@H](C)NC1=O [Compound 80] | 97
CC(C)[C@@H]1NC(=O)[C@@H](C)/C=C/c2ccc3ccc(nc3c2)[C@@H](C)OC(=O)[C@@H]2CCCN(N2)C(=O)[C@H](C)NC1=O [Compound 27] | 100
CC(C)[C@@H]1NC(=O)[C@@](C)(COCC[Si](C)(C)C)/C=C/c2ccc3ccc(nc3c2)[C@@H](C)OC(=O)[C@@H]2CCCN(N2)C(=O)[C@H](C)NC1=O [Compound 77] | 99
CC(C)[C@@H]1NC(=O)[C@H](C)C/C=C/COc2ccc(F)c(c2)[C@@H](C)OC(=O)C2CCCN(N2)C(=O)[C@H](C)NC1=O (stereo partly drawn) [Compound 35] | 94

Same assay, conditions: Hepatitis C virus, Huh-7, 72 h, read-out: Replicon 1a % inhibition at 1 μM, 1 μM; human hepatoma Huh-7 HCV replicon cells, 3 days, luciferase readout

Structure (SMILES) | inhibition at 1 µM [%]
CO[C@@H](C)[C@H]1/C=C/c2ccc3ccc(nc3c2)[C@@H](C)OC(=O)[C@@H]2CCCN(N2)C(=O)[C@@H](C)NC(=O)[C@H](C(C)C)NC1=O [Compound 149] | 99
CC(C)C(=O)O[C@@H](C)[C@H]1/C=C/c2ccc3ccc(nc3c2)[C@@H](C)OC(=O)[C@@H]2CCCN(N2)C(=O)[C@H](C)NC(=O)[C@H](C(C)C)NC1=O [Compound 165] | 100
CC(C)[C@@H]1NC(=O)C(C)(C)c2cccc(c2)-c2cc3cc(ccc3cn2)[C@@H](C)OC(=O)C2CCCN(N2)C(=O)[C@H](C)NC1=O (stereo partly drawn) [Compound 67] | 97
CC(C)[C@@H]1NC(=O)C(C)(C)/C=C/c2ccc3ccc(nc3c2)[C@@H](C)OC(=O)[C@@H]2CCCN(N2)C(=O)[C@H]([C@@H](C)O)NC1=O [Compound 91] | 99
CC(C)[C@@H]1NC(=O)C(C)(C)/C=C/c2ccc3ccc(nc3c2)C(C)N(C)C(=O)[C@@H]2CCCN(N2)C(=O)[C@H](C)NC1=O (stereo partly drawn) [Compound 115] | 92
CC1NC(=O)C(C(C)C)NC(=O)C(C)(C)/C=C/c2ccc3c(C#N)cc(nc3c2)C(C)OC(=O)C2CCCN(N2)C1=O (stereo not drawn) [Compound 141] | 99
CC(C)[C@@H]1NC(=O)C(C)(C)/C=C/c2ccc3ccc(nc3c2)[C@@H](C)OC(=O)[C@@H]2CCCN(N2)C(=O)[C@H](COC(F)F)NC1=O [Compound 106] | 99
CC(C)[C@@H]1NC(=O)[C@@]2(/C=C/c3ccc4ccc(nc4c3)[C@@H](C)OC(=O)[C@@H]3CCCN(N3)C(=O)[C@H](C)NC1=O)CCCN2C(=O)OC(C)(C)C [Compound 155] | 100
CC(C)[C@@H]1NC(=O)C(C)(C)/C=C/c2ccc3ccc(nc3c2)[C@@H](C)OC(=O)[C@@H]2CCCN(N2)C(=O)[C@H](CO)NC1=O [Compound 82] | 99
CC(C)[C@@H]1NC(=O)C(C)(C)/C=C/c2ccc3ccc(nc3c2)[C@@H]2CCCN2C(=O)[C@@H]2CCCN(N2)C(=O)[C@H](C)NC1=O (single isomer, unassigned) [Compound 151] | 0
CC[C@@H]1/C=C/c2cc3cc(ccc3cn2)[C@@H](C)OC(=O)[C@@H]2CCCN(N2)C(=O)[C@H](C)NC(=O)[C@H](C(C)C)NC1=O [Compound 19] | 97
CC(C)[C@@H]1NC(=O)C(C)(C)/C=C/c2cc3cc(ccc3cn2)[C@@H](C)NC(=O)[C@@H]2CCCN(N2)C(=O)[C@H](C)NC1=O [Compound 143] | 31
C[C@@H]1NC(=O)[C@H](CO)NC(=O)C/C=C/c2cc3cc(ccc3cn2)[C@@H](C)OC(=O)[C@@H]2CCCN(N2)C1=O [Compound 47] | 9
CC(C)[C@@H]1NC(=O)C(C)(C)/C=C/c2ccc3cnc(nc3c2)[C@@H](C)OC(=O)[C@@H]2CCCN(N2)C(=O)[C@H](C)NC1=O [Compound 96] | 100
CC(C)[C@@H]1NC(=O)C2(/C=C/c3ccc4ccc(nc4c3)[C@@H](C)OC(=O)[C@@H]3CCCN(N3)C(=O)[C@H](C)NC1=O)CCOC(C)(C)C2 (stereo partly drawn) [Compound 123] | 100
COC[C@@]1(C)/C=C/c2ccc3ccc(nc3c2)[C@@H](C)OC(=O)[C@@H]2CCCN(N2)C(=O)[C@H](C)NC(=O)[C@H](C(C)C)NC1=O [Compound 107] | 100

Each compound was assayed against cyclophilin A (Homo sapiens, UniProt P62937) (assay: Cyclophilin A TR-FRET competitive binding assay). Settings: IC50 ranges; competition with CsA-Cy5 for His-tagged CypA, two-hour incubation; read-out: TR-FRET.
Chain of cyclophilin A (P62937 whole entry, species assumed): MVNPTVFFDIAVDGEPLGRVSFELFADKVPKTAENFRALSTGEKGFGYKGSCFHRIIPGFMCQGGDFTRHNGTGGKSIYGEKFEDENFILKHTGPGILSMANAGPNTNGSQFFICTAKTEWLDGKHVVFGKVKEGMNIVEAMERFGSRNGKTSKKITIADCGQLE
Experimental: Cyclophilin A TR-FRET Competitive Binding Assay
Inhibitor potency was measured using a competitive binding assay with a time-resolved fluorescence resonance energy transfer (TR-FRET) readout. […] An IC50 value was calculated using a four-parameter logistic fit.

Structure (SMILES) | IC50 [nM]
CO[C@@H](C)[C@H]1/C=C/c2ccc3ccc(nc3c2)[C@@H](C)OC(=O)[C@@H]2CCCN(N2)C(=O)[C@@H](C)NC(=O)[C@H](C(C)C)NC1=O [Compound 149] | < 100
CC(C)C(=O)O[C@@H](C)[C@H]1/C=C/c2ccc3ccc(nc3c2)[C@@H](C)OC(=O)[C@@H]2CCCN(N2)C(=O)[C@H](C)NC(=O)[C@H](C(C)C)NC1=O [Compound 165] | < 100
COC1CCC=Cc2cccc(c2)C2CCCCN2C(=O)C2CCCN(N2)C(=O)C(C)NC(=O)C(C(C)C)NC(=O)C1C (single isomer, unassigned) [Compound 30] | < 100
CC(C)[C@@H]1NC(=O)C(C)(C)c2cccc(c2)-c2cc3cc(ccc3cn2)[C@@H](C)OC(=O)C2CCCN(N2)C(=O)[C@H](C)NC1=O (stereo partly drawn) [Compound 67] | < 100
CC(C)[C@@H]1NC(=O)C(C)(C)/C=C/c2ccc3ccc(nc3c2)[C@@H](C)OC(=O)[C@@H]2CCCN(N2)C(=O)[C@H]([C@@H](C)O)NC1=O [Compound 91] | < 100
CC(C)[C@@H]1NC(=O)C(C)(C)/C=C/c2ccc3ccc(nc3c2)C(C)N(C)C(=O)[C@@H]2CCCN(N2)C(=O)[C@H](C)NC1=O (stereo partly drawn) [Compound 115] | < 100
CC1NC(=O)C(C(C)C)NC(=O)C(C)(C)/C=C/c2ccc3c(C#N)cc(nc3c2)C(C)OC(=O)C2CCCN(N2)C1=O (stereo not drawn) [Compound 141] | < 100
CC(C)[C@@H]1NC(=O)C(C)(C)/C=C/c2ccc3ccc(nc3c2)[C@@H](C)OC(=O)[C@@H]2CCCN(N2)C(=O)[C@H](COC(F)F)NC1=O [Compound 106] | < 100
CC(C)[C@@H]1NC(=O)[C@@]2(/C=C/c3ccc4ccc(nc4c3)[C@@H](C)OC(=O)[C@@H]3CCCN(N3)C(=O)[C@H](C)NC1=O)CCCN2C(=O)OC(C)(C)C [Compound 155] | < 100
CC(C)[C@@H]1NC(=O)C(C)(C)/C=C/c2ccc3ccc(nc3c2)[C@@H](C)OC(=O)[C@@H]2CCCN(N2)C(=O)[C@H](CO)NC1=O [Compound 82] | < 100
CC(C)[C@@H]1NC(=O)C(C)(C)/C=C/c2ccc3ccc(nc3c2)[C@@H]2CCCN2C(=O)[C@@H]2CCCN(N2)C(=O)[C@H](C)NC1=O (single isomer, unassigned) [Compound 151] | 1000 to 10000
CC[C@@H]1/C=C/c2cc3cc(ccc3cn2)[C@@H](C)OC(=O)[C@@H]2CCCN(N2)C(=O)[C@H](C)NC(=O)[C@H](C(C)C)NC1=O [Compound 19] | < 100
CC(C)[C@@H]1NC(=O)C(C)(C)/C=C/c2cc3cc(ccc3cn2)[C@@H](C)NC(=O)[C@@H]2CCCN(N2)C(=O)[C@H](C)NC1=O [Compound 143] | < 100
C[C@@H]1NC(=O)[C@H](CO)NC(=O)C/C=C/c2cc3cc(ccc3cn2)[C@@H](C)OC(=O)[C@@H]2CCCN(N2)C1=O [Compound 47] | 101 to 1000
CC(C)[C@@H]1NC(=O)C(C)(C)/C=C/c2ccc3cnc(nc3c2)[C@@H](C)OC(=O)[C@@H]2CCCN(N2)C(=O)[C@H](C)NC1=O [Compound 96] | < 100
CC(C)[C@@H]1NC(=O)C2(/C=C/c3ccc4ccc(nc4c3)[C@@H](C)OC(=O)[C@@H]3CCCN(N3)C(=O)[C@H](C)NC1=O)CCOC(C)(C)C2 (stereo partly drawn) [Compound 123] | < 100
COC[C@@]1(C)/C=C/c2ccc3ccc(nc3c2)[C@@H](C)OC(=O)[C@@H]2CCCN(N2)C(=O)[C@H](C)NC(=O)[C@H](C(C)C)NC1=O [Compound 107] | < 100

Same assay, conditions: TR-FRET, IC50 ranges; competition with CsA-Cy5 for His-tagged CypA, two-hour incubation

Structure (SMILES) | IC50 [nM]
CC(C)[C@@H]1NC(=O)[C@](C)(CO)/C=C/c2ccc3ccc(nc3c2)[C@@H](C)OC(=O)[C@@H]2CCCN(N2)C(=O)[C@H](C)NC1=O [Compound 80] | < 100
CC(C)[C@@H]1NC(=O)[C@@H](C)/C=C/c2ccc3ccc(nc3c2)[C@@H](C)OC(=O)[C@@H]2CCCN(N2)C(=O)[C@H](C)NC1=O [Compound 27] | < 100
CC(C)[C@@H]1NC(=O)[C@@](C)(COCC[Si](C)(C)C)/C=C/c2ccc3ccc(nc3c2)[C@@H](C)OC(=O)[C@@H]2CCCN(N2)C(=O)[C@H](C)NC1=O [Compound 77] | < 100
CC(C)[C@@H]1NC(=O)[C@H](C)C/C=C/COc2ccc(F)c(c2)[C@@H](C)OC(=O)C2CCCN(N2)C(=O)[C@H](C)NC1=O (stereo partly drawn) [Compound 35] | < 100
